Results as given in ChEMBL document CHEMBL1201862, “PubChem BioAssay data set” (2004).
Activity calls are given as the source filed them.

Assays:
cells [1] = conditions: HEK293;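 also: cells exposed to compound for 48 hours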
[2] = target: Voltage-dependent T-type calcium channel subunit alpha-1H (Homo sapiens, UniProt O95180); format: functional;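 also: channel activity triggered by adding a high calcium stimulation buffer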
[3] = target: T1, Beta-2 adrenergic receptor (Homo sapiens, UniProt P07550); test: beta2AR agonists driving receptor internalization, dose response, cell-based, FAP fluorogen, flow cytometry, cherry pick 1 (AID 588763); format: functional
[4] = target: T1, Beta-2 adrenergic receptor; test: Dose response for HTS for Beta-2AR agonists via FAP method from Powderset3.; format: functional
[5] = Luminescence Cell-Based Dose Response HTS to Identify Activators of Luciferase Translation or Activity in H4-C Neuroglioblastoma Cells. [Related pubchem assays: 1829 (Project Summary), 1814 (Primary HTS)]; format: functional
[6] = Luminescence Cell-Based Dose Retest to Confirm Activators of 5'UTR Stem-Loop Driven Alpha-Synuclein mRNA Translation in H4 Neuroglioblastoma Cells. [Related pubchem assays (depositor defined):AID1813, AID1829]; format: functional
[7] = Luminescence Cell-Based Dose Response HTS to Identify Activators of 5'UTR Stem-Loop Driven Prion Protein mRNA Translation in H4-C Neuroglioblastoma Cells. [Related pubchem assays: 1829 (Project Summary), 1814 (Primary HTS)]; format: functional
[8] = Luminescence Cell-Based Dose Confirmation HTS to Identify Activators of 5'UTR Stem-Loop Driven Alpha-Synuclein mRNA Translation in H4 Neuroglioblastoma Cells. [Related pubchem assays: 1829 (Project Summary), 1814 (Primary HTS)]; format: functional
[9] = Luminescence Cell-Based Dose Response HTS to Identify Activators of Luciferase Translation or Activity in H4 […] Cells. [Related pubchem assays: 1829 (Project Summary), 1814 (Primary HTS)]; format: functional
H4 = test: Luminescence Cell-Based Dose Response HTS to Identify Activators of 5'UTR Stem-Loop Driven Prion Protein mRNA Translation in H4 Neuroglioblastoma Cells. [Related pubchem assays: 1829 (Project Summary), 1814 (Primary HTS)]; format: functional; conditions: Homo sapiens
[10] = HepG2 cell cytotoxicity, dose response, cytotoxicity control, cherry-picks, set 5 (AID 1053118); format: functional, cell-based
Albumin = Albumin (Bos taurus, UniProt P02769); test: Counterscreen for inhibitors of T-cell receptor (TCR)-CD3 interaction: Fluorescence-based biochemical high throughput dose response assay to identify inhibitors of T-cell receptor (TCR)-CD3 interaction using a TAMRA-labeled BSA probe.; format: functional
cells [11] = format: functional, cell-based
[12] = target: Nuclear receptor subfamily 0 group B member 1 (Homo sapiens, UniProt P51843); format: functional, cell-based;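 also: HEK293T cells transfected with SF-1 and DAX-1 plus StAR promoter luciferase reporter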
HEK293 = test: HEK293T cell cytotoxicity, dose response, cytotoxicity control, ATP luminescence, cherry-pick samples (AID 687005); format: functional, cell-based; conditions: Homo sapiens;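 also: cells exposed to compound for 48 hours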
[13] = HEK293 Cytotoxicity Assay Measured in Cell-Based System Using Plate Reader - 7071-01_Inhibitor_Dose_CherryPick_Activity_Set2.; format: functional
[14] = HeLa cell cytotoxicity, dose response, cytotoxicity control for MgcRacGAP inhibitor project (AID 624300); format: functional
[15] = target: T2, Rac GTPase-activating protein 1 (Homo sapiens, UniProt Q9H0H5); test: MgcRacGAP GTPase-activating activity inhibitors, confirmation, biochemical, ADP Hunter fluorescence, primary and confirmatory (AID 624330); format: functional
T2 sequence (Q9H0H5 whole entry): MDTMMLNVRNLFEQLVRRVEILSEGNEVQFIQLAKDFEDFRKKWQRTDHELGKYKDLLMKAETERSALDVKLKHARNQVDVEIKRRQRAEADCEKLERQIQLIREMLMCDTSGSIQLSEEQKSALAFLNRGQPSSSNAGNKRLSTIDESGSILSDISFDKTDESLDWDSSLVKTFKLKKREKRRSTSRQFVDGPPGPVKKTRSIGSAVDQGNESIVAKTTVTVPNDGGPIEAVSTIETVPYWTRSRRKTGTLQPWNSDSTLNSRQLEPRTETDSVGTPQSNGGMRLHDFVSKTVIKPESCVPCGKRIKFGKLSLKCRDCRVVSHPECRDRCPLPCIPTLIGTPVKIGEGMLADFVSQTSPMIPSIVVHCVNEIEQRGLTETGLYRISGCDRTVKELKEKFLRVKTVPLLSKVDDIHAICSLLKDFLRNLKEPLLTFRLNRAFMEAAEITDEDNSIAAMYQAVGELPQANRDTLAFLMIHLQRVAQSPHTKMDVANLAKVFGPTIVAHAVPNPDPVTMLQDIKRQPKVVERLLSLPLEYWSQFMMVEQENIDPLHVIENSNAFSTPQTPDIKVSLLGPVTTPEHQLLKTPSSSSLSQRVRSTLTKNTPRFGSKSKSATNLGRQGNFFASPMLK

[16] = target: Arf-GAP with SH3 domain, ANK repeat and PH domain-containing protein 1 (Homo sapiens, UniProt Q9ULH1); format: functional;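 also: biochemical fluorescence polarization dose–response screen measuring inhibition of ASAP1; ASAP1 GAP domain stimulating GTP hydrolysis by truncated human ARF1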
[17] = target: T3, Histone-lysine N-methyltransferase NSD2 (Homo sapiens, UniProt O96028); format: biochemical
T3 sequence (O96028 whole entry): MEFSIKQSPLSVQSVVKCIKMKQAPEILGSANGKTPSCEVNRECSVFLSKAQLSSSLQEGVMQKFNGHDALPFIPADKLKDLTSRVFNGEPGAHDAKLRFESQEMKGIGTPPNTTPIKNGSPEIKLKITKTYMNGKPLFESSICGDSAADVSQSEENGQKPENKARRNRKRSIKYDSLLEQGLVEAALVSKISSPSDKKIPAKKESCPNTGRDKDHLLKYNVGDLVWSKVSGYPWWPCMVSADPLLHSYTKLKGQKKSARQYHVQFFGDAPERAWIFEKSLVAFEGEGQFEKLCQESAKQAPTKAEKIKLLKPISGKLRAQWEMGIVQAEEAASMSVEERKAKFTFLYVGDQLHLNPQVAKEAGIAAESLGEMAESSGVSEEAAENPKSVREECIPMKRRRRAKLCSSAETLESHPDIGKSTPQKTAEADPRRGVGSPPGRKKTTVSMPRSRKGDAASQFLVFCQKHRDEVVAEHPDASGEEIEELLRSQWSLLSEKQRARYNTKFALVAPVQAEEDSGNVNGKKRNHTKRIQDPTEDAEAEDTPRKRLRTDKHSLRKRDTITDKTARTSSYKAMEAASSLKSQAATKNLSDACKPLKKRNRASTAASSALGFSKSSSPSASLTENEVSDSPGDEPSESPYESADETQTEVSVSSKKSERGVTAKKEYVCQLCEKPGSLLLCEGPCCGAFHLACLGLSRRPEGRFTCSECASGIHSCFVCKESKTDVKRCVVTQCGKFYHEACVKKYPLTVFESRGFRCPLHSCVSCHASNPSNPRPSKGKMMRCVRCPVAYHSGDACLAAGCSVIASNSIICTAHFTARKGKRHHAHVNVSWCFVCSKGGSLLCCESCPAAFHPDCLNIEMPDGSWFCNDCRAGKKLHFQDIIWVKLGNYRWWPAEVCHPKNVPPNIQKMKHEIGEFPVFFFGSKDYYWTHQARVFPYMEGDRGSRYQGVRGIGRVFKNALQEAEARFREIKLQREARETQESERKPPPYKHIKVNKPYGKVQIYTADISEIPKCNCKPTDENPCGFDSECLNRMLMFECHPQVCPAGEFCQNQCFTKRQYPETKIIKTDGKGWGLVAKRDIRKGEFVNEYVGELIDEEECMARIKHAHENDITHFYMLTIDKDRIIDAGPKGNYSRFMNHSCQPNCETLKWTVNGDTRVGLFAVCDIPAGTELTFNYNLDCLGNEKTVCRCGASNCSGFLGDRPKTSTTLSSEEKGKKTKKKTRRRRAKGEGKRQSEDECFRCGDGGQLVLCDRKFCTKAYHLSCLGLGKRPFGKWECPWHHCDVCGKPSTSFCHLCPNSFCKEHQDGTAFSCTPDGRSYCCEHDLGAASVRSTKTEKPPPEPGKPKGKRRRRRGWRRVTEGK

[18] = human group III sPLA2 inhibitors, dose response, biochemical, QFRET, IC50 (AID 743457);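 also: green fluorescence rise as the enzyme cleaves BODIPY PC-A2 in liposomes; potency for inhibition of the enzyme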
[19] = target: 1-phosphatidylinositol 4,5-bisphosphate phosphodiesterase gamma-1 (Homo sapiens, UniProt P19174); test: Counterscreen for inhibitors of phospholipase C isozymes (PLC-B3): Fluorescence-based biochemical high throughput dose response assay to identify inhibitors of phospholipase C isozymes (PLC-gamma1).
[20] = target: 1-phosphatidylinositol 4,5-bisphosphate phosphodiesterase beta-3 (Homo sapiens, UniProt Q01970); test: Fluorescence-based biochemical high throughput dose response assay to identify inhibitors of phospholipase C isozymes (PLC-B3).
Chain of 1-phosphatidylinositol 4,5-bisphosphate phosphodiesterase beta-3 (Q01970 whole entry): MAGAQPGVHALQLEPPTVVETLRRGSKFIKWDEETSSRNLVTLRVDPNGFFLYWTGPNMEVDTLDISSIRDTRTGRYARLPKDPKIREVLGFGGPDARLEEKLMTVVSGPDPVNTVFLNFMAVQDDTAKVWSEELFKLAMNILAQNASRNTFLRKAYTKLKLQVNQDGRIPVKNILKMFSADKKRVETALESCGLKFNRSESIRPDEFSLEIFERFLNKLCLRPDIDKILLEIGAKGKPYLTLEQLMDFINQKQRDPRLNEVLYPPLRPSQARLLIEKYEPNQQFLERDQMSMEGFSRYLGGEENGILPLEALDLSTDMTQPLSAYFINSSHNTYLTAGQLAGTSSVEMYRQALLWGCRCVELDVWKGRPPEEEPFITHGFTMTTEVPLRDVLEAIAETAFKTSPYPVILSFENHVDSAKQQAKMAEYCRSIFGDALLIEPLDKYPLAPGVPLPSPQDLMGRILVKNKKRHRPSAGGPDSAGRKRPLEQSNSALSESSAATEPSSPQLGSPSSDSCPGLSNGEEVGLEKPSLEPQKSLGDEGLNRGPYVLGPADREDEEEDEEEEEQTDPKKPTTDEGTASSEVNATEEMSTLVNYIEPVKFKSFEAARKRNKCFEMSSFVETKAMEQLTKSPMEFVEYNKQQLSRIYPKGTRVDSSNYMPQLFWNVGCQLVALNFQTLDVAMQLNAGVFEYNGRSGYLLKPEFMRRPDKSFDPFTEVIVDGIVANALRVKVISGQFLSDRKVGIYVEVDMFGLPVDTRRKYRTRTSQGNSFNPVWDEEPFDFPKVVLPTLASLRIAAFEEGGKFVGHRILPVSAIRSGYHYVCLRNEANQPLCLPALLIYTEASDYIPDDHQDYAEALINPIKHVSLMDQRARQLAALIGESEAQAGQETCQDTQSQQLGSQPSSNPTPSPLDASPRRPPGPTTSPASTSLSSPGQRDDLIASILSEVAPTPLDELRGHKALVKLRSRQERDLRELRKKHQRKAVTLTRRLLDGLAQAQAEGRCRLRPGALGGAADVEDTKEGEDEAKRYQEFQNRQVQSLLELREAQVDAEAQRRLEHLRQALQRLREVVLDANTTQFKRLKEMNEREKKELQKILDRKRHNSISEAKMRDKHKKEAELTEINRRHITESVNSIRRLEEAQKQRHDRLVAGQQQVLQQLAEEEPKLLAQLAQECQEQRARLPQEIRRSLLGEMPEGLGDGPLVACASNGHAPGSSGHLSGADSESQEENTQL

T1 sequence (P07550 whole entry): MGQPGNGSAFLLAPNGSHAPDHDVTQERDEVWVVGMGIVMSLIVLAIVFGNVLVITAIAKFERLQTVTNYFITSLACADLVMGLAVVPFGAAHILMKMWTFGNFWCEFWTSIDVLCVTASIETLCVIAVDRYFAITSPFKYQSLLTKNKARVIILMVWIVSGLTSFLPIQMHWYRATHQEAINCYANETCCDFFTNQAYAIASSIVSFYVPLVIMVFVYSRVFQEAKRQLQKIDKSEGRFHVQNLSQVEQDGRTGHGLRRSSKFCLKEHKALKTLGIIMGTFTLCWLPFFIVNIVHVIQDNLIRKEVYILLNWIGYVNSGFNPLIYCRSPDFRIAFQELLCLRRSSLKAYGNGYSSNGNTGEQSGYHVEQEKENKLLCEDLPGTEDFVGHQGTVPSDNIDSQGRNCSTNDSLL
Chain of Arf-GAP with SH3 domain, ANK repeat and PH domain-containing protein 1 (Q9ULH1 whole entry, the tested form may be a part): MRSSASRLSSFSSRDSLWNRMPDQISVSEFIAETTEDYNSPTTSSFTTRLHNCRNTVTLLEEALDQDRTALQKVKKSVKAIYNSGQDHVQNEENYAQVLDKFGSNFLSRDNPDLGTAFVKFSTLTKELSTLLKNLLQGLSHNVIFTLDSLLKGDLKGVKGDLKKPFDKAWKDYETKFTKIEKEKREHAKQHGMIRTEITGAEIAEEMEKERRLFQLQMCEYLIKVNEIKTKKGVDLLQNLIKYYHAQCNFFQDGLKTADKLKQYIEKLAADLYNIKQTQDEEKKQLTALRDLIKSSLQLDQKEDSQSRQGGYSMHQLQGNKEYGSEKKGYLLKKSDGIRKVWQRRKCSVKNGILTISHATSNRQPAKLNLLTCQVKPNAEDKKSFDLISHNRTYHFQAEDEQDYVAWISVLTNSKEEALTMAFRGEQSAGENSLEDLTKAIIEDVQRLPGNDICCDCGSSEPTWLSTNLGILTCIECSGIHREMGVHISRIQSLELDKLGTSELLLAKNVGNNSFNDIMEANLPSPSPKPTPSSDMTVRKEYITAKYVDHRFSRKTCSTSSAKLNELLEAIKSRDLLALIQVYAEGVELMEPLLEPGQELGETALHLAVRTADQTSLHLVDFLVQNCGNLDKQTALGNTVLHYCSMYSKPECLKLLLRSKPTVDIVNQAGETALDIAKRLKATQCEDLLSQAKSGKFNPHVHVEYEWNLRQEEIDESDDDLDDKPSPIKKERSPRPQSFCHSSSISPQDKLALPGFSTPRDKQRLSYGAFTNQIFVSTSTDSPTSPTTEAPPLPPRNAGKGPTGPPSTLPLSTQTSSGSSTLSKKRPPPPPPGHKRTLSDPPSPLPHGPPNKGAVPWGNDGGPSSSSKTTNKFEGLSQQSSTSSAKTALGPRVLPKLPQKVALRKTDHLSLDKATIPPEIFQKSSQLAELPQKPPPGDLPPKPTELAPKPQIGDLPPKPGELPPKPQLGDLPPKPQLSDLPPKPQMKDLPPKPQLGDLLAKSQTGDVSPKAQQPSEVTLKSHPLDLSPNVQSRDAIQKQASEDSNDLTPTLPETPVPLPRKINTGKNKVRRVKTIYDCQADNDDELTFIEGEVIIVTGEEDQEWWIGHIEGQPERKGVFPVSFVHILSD
Chain of Albumin (P02769 whole entry): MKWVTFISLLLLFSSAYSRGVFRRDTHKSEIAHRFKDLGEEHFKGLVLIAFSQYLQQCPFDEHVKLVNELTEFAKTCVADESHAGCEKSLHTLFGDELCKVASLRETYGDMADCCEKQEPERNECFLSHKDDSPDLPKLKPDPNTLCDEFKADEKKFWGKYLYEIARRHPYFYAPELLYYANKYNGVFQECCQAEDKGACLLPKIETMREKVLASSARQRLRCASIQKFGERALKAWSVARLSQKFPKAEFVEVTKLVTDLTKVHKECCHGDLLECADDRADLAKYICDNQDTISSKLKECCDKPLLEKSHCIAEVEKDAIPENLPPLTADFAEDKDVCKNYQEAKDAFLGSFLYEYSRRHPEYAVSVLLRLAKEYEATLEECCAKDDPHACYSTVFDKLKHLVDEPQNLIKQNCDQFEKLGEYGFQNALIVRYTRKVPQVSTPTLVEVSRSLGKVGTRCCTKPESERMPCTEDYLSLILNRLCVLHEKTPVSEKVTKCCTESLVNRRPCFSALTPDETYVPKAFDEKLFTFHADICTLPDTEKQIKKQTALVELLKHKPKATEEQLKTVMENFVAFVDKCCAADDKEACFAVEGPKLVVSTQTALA
Chain of 1-phosphatidylinositol 4,5-bisphosphate phosphodiesterase gamma-1 (P19174 whole entry): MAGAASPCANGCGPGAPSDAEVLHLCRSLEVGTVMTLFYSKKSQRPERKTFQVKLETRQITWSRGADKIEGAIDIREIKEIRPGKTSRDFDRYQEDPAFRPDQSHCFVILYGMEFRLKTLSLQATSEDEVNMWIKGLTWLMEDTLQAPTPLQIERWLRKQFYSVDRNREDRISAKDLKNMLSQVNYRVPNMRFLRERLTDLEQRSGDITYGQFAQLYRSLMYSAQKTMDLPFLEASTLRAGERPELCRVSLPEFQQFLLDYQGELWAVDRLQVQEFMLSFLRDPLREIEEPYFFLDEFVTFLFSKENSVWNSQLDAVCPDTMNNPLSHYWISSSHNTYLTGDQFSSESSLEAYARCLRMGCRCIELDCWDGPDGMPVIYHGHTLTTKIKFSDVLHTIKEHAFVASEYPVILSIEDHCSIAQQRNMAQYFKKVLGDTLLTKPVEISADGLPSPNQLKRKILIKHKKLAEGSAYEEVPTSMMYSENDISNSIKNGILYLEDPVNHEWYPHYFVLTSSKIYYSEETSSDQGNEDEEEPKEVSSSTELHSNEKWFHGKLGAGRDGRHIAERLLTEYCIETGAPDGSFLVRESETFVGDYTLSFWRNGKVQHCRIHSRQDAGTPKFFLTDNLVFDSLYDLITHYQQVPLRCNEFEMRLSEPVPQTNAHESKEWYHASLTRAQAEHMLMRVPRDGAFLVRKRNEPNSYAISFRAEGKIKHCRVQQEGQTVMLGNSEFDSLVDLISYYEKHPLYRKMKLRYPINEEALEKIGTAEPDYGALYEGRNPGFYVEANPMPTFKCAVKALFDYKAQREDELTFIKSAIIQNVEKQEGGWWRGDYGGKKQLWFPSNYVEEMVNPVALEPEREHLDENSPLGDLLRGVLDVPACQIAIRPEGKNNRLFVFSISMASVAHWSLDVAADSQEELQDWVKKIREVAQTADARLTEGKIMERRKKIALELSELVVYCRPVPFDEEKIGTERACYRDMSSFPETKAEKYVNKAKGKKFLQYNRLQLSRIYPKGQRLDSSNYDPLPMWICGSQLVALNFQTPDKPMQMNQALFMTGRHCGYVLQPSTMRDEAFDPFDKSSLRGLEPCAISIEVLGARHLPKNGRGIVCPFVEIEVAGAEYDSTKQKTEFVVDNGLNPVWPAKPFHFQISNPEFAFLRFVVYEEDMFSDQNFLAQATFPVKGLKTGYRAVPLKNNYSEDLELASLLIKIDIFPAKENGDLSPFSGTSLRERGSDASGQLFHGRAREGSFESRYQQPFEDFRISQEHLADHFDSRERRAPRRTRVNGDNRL

CC(C)CCN(CCC(C)C)CC(O)Cn1c2ccccc2c(=O)c2ccccc21 (stereo not drawn)
AC50 (cells [1]): > 52 µM (inactive)

CN(Cc1ccccc1)S(=O)(=O)c1ccc(NS(=O)(=O)Cc2ccccc2)cc1
EC50 [2]: 3.46 µM (active)
EC50 [3]: 1.25 µM (active)
EC50 [4]: 0.0609 µM (active)

O=c1c2cc(N3CCOCC3)ccc2[nH]c(=S)n1Cc1ccc(Cl)cc1
EC50 [5]: 2.96 µM (active)
EC50 [6]: 0.719 µM (active)
EC50 [7]: 4.66 µM (active)
EC50 [8]: 5.35 µM (active)
EC50 [9]: 66.7 µM (active)
EC50 (H4): 5.33 µM (active)
AC50 [10]: > 52 µM (inactive)

O=C(NNC(=O)c1cc2ccccc2cc1O)Nc1ccc(F)cc1F
IC50 (Albumin): > 94.1 µM (inactive)

O=C1c2ccccc2C(=O)N1CCOc1ccccc1Br
IC50 (cells [11]): > 67.5 µM (inactive)
IC50 [12]: > 67.5 µM (inactive)

CC(C)N1C(=O)C2(OCCCO2)c2cc(Br)ccc21
AC50 (HEK293): 13 µM (active)
AC50 [13]: 13 µM (active)

CN(C)c1ccc(/C=C/c2cc[n+](C)c3ccccc23)cc1.[O-][Cl+3]([O-])([O-])[O-]
CC50 [14]: 41.1 µM (active)
IC50 [15]: 36.1 µM (active)
IC50 [16]: 21.4 µM (inactive)
AC50 [17]: 11.7 µM (active)
IC50 [18]: 28.6 µM (inactive)

O=S(=O)(c1ccccc1)c1cnn(-c2ccccc2)c1-c1ccc(Cl)cc1
IC50 [19]: > 122 µM (inactive)
IC50 [20]: > 122 µM (inactive)
